{"source": "paper PMC5165251", "about": "“Rivaroxaban-Induced Hemorrhage Associated with ABCB1 Genetic Defect” (Frontiers in Pharmacology, 2016)", "key": {"[1]": {"parameters": "method as in Lee et al., 2015", "settings": "in vivo; ref Lee et al., 2015; cited from earlier work"}, "[2]": {"system": "CYP3A4/5", "settings": "in vitro; ref Lee et al., 2015; cited from earlier work"}, "[3]": {"system": "P-gp", "settings": "in vitro; ref Lee et al., 2015; cited from earlier work"}, "[4]": {"system": "CYP3A4/5", "experiment": "CYP3A4/5 phenotyping with midazolam as probe", "settings": "patient, 8 days after hospital admission, concomitant atorvastatin 40 mg q.d.", "description": "Midazolam was used as a probe to measure the joint activity of CYP3A4/5 as previously described ([Bosilkovska et al., 2014]). Phenotyping was performed 8 days after hospital admission with concomitant treatment of insulin, enoxaparin 60 mg b.i.d., atorvastatin 40 mg q.d."}, "[5]": {"system": "CYP3A4/5", "settings": "ref Bosilkovska et al., 2014, cited from earlier work"}, "[6]": {"target": "T1, Factor Xa (Homo sapiens, UniProt P00742)", "T1 construct": "purchased Hyphen Biomed, Neuville-Sur-Oise, France", "T1 sequence (P00742 235-488 limits assumed)": "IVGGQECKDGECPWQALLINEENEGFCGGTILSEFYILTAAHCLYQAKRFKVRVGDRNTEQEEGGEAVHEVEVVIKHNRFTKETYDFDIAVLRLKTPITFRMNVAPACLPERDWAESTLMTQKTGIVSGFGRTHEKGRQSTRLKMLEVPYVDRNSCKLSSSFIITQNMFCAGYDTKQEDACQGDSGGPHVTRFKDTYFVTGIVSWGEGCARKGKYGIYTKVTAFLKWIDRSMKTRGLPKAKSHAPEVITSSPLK", "T1 sequence (P00742 41-179 partner limits assumed)": "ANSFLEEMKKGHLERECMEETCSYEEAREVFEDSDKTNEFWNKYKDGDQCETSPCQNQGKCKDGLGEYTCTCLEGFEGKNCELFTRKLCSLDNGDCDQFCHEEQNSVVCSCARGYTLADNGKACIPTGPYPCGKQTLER", "experiment": "Anti-Xa activity, chromogenic assay (DiXal kit) in patient plasma", "assay_type": "in vivo", "settings": "patient on 20 mg q.d.", "description": "Anti-Xa activity was measured with a chromogenic assay using the DiXal® kit (Hyphen Biomed, Neuville-Sur-Oise, France) and a BCS XP instrument (Siemens, Marburg, Germany). This method has a limit of detection of 10 ng/ml. No information is given by the manufacturer regarding the limit of quantification (LOQ). However, previous studies have shown a LOQ of 20–30 ng/ml ([Douxfils et al., 2013]). The accuracy and precision calculated from the quality controls (QCs) were 107.0 and 8.8%, respectively, ([Asmis et al., 2012]). An excellent correlation between this method and liquid chromatography-tandem mass spectrometry (LC-MS/MS) has been shown (Spearman correlation coefficient of 0.96) ([Douxfils et al., 2013])."}, "[7]": {"experiment": "Rivaroxaban plasma concentrations by LC-MS/MS in the patient", "assay_type": "in vivo, human", "description": "Rivaroxaban determination was performed using a fully validated LC-MS/MS method according to guidelines of the US Food and Drug Administration and the International Conference on Harmonization. The method was accurate and precise across the dynamic range of 0.5–1000 ng/ml. The LOQ was 0.5 ng/ml. The mean precision and accuracy, calculated from the QCs, were 10.2 and 112%, respectively.\nA plasma sample of 40 μl was processed by protein precipitation extraction using acetonitrile (200 μL). Separation was performed on a C18 column (50 mm × 2.1 mm ID; 2.6 μm particle size) and under gradient conditions using formic acid 10 mM in water and formic acid 10 mM in acetonitrile. Detection was by tandem-MS in positive mode using a Qtrap API 6500 from AB sciex (Ontario, Canada) using rivaroxaban-d4 as internal standard (20 ng/ml)."}, "[8]": {"experiment": "Case report: laboratory testing at hospital admission under rivaroxaban", "assay_type": "in vivo, human", "settings": "3 months on rivaroxaban 20 mg q.d., normal range 140–180 g/l"}, "[9]": {"parameters": "method as in Mueck et al., 2014", "settings": "ref Mueck et al., 2014, cited from earlier work"}, "[10]": {"system": "Mdr1a/Mdr1b/Bcrp", "parameters": "method as in Gong et al., 2013", "settings": "4 h after administration; ref Gong et al., 2013; cited from earlier work"}, "[11]": {"parameters": "method as in Grillo et al., 2012", "settings": "PBPK simulation, concurrent renal impairment plus erythromycin, elderly; ref Grillo et al., 2012; cited from earlier work"}, "[12]": {"parameters": "method as in Moore et al., 2014", "settings": "moderate renal impairment plus erythromycin vs normal renal function, rivaroxaban 10 mg alone; ref Moore et al., 2014; cited from earlier work"}, "[13]": {"parameters": "method as in Mueck et al., 2013", "settings": "healthy volunteers, ref Mueck et al., 2013, cited from earlier work"}, "[14]": {"settings": "with ketoconazole 200 mg q.d. vs rivaroxaban alone"}, "[15]": {"settings": "with ketoconazole 400 mg q.d. vs rivaroxaban alone"}}, "note": "“Also recorded” adds a separate entry of the source. Like-named read-outs stand apart in the source and are kept apart here."}
{"compound": "CC(C)c1c(C(=O)Nc2ccccc2)c(-c2ccccc2)c(-c2ccc(F)cc2)n1CC[C@@H](O)C[C@@H](O)CC(=O)O", "note": "[atorvastatin]", "values": [{"measurement": "Impact on nifedipine pharmacokinetics", "setting": "[1]", "value": "no impact"}, {"measurement": "Inhibition of CYP3A4/5 activity", "setting": "[2]", "value": "inhibited"}, {"measurement": "Inhibition of P-gp activity", "setting": "[3]", "value": "not P-gp activity"}]}
{"compound": "Cc1ncc2n1-c1ccc(Cl)cc1C(c1ccccc1F)=NC2", "note": "[midazolam]", "values": [{"measurement": "OH-midazolam/midazolam metabolic ratio", "setting": "[4]", "value": 0.31}, {"measurement": "OH-midazolam/midazolam metabolic ratio", "setting": "[5]; healthy volunteers in the presence of a CYP inhibitor (voriconazole)", "value": 0.22}, {"measurement": "OH-midazolam/midazolam metabolic ratio", "setting": "[5]; healthy volunteers without enzyme inhibitor/inducer", "value": 0.50}]}
{"compound": "O=C(NC[C@H]1CN(c2ccc(N3CCOCC3=O)cc2)C(=O)O1)c1ccc(Cl)s1", "note": "[rivaroxaban]", "values": [{"measurement": "Anti-Xa activity", "setting": "[6]; 24 h after the last rivaroxaban dose", "value": 231, "unit": "ng/mL"}, {"measurement": "Anti-Xa activity", "setting": "[6]; 48 h after the last rivaroxaban dose", "value": 110, "unit": "ng/mL"}, {"measurement": "Anti-Xa activity", "setting": "[6]; 60 h after the last rivaroxaban dose", "value": 81, "unit": "ng/mL"}, {"measurement": "Anti-Xa activity", "setting": "[6]; 72 h after the last rivaroxaban dose", "value": 66, "unit": "ng/mL"}, {"measurement": "Anti-Xa activity", "setting": "[6]; 84 h after the last rivaroxaban dose", "value": 66, "unit": "ng/mL"}, {"measurement": "Anti-Xa activity", "setting": "[6]; 96 h (4 days) after the last rivaroxaban dose", "value": 34, "unit": "ng/mL"}, {"measurement": "Rivaroxaban plasma concentrations", "setting": "[7]; 48 h after the last rivaroxaban dose, patient on 20 mg q.d., LC-MS/MS", "value": 88.3, "unit": "ng/mL"}, {"measurement": "Rivaroxaban plasma concentrations", "setting": "[7]; 96 h (4 days) after the last rivaroxaban dose, patient on 20 mg q.d., LC-MS/MS", "value": 35.6, "unit": "ng/mL"}, {"measurement": "half-life", "setting": "[7]; human, plasma, oral, 20 mg q.d. Patient, homozygous ABCB1 variant carrier, moderate acute renal failure, read-out: Estimated half-life", "value": "24 to 30", "unit": "h"}, {"measurement": "concentration at 48 h", "setting": "[7]; human, plasma, oral, 20 mg q.d., 48 h after the last rivaroxaban dose, patient on 20 mg q.d., LC-MS/MS", "value": 88, "unit": "ng/mL"}, {"measurement": "concentration at 72 h", "setting": "[7]; human, plasma, oral, 20 mg q.d., 72 h after the last rivaroxaban dose, patient on 20 mg q.d., LC-MS/MS", "value": 70.5, "unit": "ng/mL"}, {"measurement": "concentration at 96 h", "setting": "[7]; human, plasma, oral, 20 mg q.d., 96 h (4 days) after the last rivaroxaban dose, patient on 20 mg q.d., LC-MS/MS", "value": 36, "unit": "ng/mL"}, {"measurement": "Estimated half-life relative to usually reported", "setting": "[7]; patient vs usually reported half-life", "value": "2–3 times"}, {"measurement": "Hemoglobin level", "setting": "[8]", "value": 70, "unit": "g/L"}, {"measurement": "half-life", "setting": "[9]; old patients", "value": "11 to 13", "unit": "h"}, {"measurement": "Oral bioavailability", "setting": "[9]", "value": "80–100%"}, {"measurement": "Part of the dose eliminated as unchanged drug in the urine", "setting": "[9]", "value": "more than one third; also recorded: About one third"}, {"measurement": "Increase in plasma concentration, triple knockout vs wild type mice", "setting": "[10]", "value": 1.7, "unit": "fold"}, {"measurement": "Increase in rivaroxaban exposure", "setting": "[11]", "value": "2.5–3 fold"}, {"measurement": "Increase in rivaroxaban AUC", "setting": "[12]", "value": "approximately 99%"}, {"measurement": "Increase in rivaroxaban Cmax", "setting": "[12]", "value": "~64", "unit": "%"}, {"measurement": "Increase in rivaroxaban AUC", "setting": "[13]; [14]", "value": 82, "unit": "%"}, {"measurement": "Increase in rivaroxaban Cmax", "setting": "[13]; [14]", "value": 53, "unit": "%"}, {"measurement": "Increase in rivaroxaban AUC", "setting": "[13]; [15]", "value": 158, "unit": "%"}, {"measurement": "Increase in rivaroxaban Cmax", "setting": "[13]; [15]", "value": 72, "unit": "%"}]}
